Measurements taken from ChEMBL document CHEMBL3286252, “Synthesis, biological evaluation and structure-activity relationship of new GABA uptake inhibitors, derivatives of 4-aminobutanamides” (Eur J Med Chem, 2014).

Assays:
[1] = Retardation factor of the compound using 25%NH3/MeOH/DCM/PE at ratio of 45:225:600:90 as solvent system by thin layer chromatography; format: physicochemical
GABA transporter 2 = target: T1, GABA transporter 2 (Mus musculus, UniProt P31651); experiment: Inhibition of mouse GAT2 expressed in HEK293 cells assessed as decrease in [3H]GABA uptake; format: cell-based
T1 sequence (P31651 whole entry): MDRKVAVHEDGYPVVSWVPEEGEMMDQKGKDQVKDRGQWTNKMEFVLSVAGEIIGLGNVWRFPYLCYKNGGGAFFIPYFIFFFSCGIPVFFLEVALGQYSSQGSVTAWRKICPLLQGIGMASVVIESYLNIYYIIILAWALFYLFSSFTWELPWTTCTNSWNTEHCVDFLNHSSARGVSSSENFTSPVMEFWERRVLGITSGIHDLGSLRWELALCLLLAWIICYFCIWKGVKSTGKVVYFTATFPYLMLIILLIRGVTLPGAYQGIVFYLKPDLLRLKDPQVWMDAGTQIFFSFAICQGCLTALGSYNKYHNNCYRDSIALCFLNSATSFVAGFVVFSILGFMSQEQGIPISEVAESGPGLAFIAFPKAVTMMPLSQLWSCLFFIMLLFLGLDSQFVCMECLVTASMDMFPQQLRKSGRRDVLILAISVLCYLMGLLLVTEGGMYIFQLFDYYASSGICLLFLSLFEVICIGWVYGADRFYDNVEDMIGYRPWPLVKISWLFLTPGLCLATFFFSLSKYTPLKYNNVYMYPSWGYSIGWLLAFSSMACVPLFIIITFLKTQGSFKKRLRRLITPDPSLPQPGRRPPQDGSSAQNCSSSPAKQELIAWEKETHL

GABA transporter 4 = target: T2, GABA transporter 4 (Mus musculus, UniProt P31650); experiment: Inhibition of mouse GAT4 expressed in HEK293 cells assessed as decrease in [3H]GABA uptake; format: cell-based
T2 sequence (P31650 whole entry): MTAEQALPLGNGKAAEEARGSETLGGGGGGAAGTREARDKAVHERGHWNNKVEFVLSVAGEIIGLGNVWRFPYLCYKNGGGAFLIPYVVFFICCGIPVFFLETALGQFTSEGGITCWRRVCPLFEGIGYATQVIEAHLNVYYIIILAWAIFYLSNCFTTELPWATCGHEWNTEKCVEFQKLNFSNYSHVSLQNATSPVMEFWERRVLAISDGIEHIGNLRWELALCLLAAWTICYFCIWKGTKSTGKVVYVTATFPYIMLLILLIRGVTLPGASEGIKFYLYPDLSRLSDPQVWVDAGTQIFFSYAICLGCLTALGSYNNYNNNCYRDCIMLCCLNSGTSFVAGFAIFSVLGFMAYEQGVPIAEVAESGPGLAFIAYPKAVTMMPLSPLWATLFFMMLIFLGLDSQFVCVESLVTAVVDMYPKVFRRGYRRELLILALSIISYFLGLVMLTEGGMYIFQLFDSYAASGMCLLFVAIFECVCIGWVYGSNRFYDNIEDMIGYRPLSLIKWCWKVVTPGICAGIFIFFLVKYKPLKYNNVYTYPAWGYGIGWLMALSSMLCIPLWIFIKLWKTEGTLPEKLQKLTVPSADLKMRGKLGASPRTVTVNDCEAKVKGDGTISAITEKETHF

[2] = target: T3, Sodium- and chloride-dependent GABA transporter 1 (Mus musculus, UniProt P31648); experiment: Inhibition of mouse GAT1 expressed in HEK293 cells assessed as decrease in [3H]GABA uptake; format: cell-based
[3] = target: T3, Sodium- and chloride-dependent GABA transporter 1; experiment: Displacement of NO711 from mouse GAT1 expressed in HEK293 cells by LC-MS/MS analysis; format: cell-based
GABA transporter 3 = target: T4, GABA transporter 3 (Mus musculus, UniProt P31649); experiment: Inhibition of mouse GAT3 expressed in HEK293 cells assessed as decrease in [3H]GABA uptake; format: cell-based
T4 sequence (P31649 whole entry): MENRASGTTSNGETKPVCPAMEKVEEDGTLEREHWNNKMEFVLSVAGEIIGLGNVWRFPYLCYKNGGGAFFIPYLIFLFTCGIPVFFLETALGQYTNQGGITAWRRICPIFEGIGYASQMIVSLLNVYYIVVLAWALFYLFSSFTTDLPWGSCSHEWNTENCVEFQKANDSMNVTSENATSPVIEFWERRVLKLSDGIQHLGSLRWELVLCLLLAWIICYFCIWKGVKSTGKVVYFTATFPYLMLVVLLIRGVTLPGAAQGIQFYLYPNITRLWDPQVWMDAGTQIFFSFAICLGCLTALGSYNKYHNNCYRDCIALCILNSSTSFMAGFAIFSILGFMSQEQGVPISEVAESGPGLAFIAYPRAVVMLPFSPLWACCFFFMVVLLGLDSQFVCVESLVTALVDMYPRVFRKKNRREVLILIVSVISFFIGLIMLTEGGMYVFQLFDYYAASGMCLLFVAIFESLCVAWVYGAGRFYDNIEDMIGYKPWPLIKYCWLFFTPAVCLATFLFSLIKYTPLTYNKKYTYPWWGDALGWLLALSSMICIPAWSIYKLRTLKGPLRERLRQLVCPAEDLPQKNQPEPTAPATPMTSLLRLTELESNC

[4] = Retardation factor of the compound using hexane/ethanol/TEA at ratio of 7:2:1 as solvent system by thin layer chromatography; format: physicochemical
[5] = target: Sodium- and chloride-dependent GABA transporter 1 (Mus musculus) (UniProt P31648); experiment: Displacement of NO711 from mouse GAT1 expressed in HEK293 cells assessed as NO711 binding at 100 uM by LC-MS/MS analysis; format: cell-based

Row | SMILES | Rf [1] | IC50 (GABA transporter 2) | IC50 (GABA transporter 4) | IC50 [2] | Ki [3] | IC50 (GABA transporter 3) | Rf [4] | Activity [5]
1 | Cc1ccc(CNC(=O)C(CCN)N(C)CCC=C(c2ccccc2)c2ccccc2)cc1 (stereo not drawn) | 0.84 | 9.55 µM | 9.77 µM | 8.51 µM | 9.12 µM | 12 µM |  | 
2 | CN(CCC=C(c1ccccc1)c1ccccc1)C(CCN)C(=O)NCc1ccc(F)cc1 (stereo not drawn) | 0.79 | 12.9 µM | 12.6 µM | 13.8 µM | 15.8 µM | 11 µM |  | 
3 | CN(CCCC(c1ccccc1)c1ccccc1)C(CCN)C(=O)NCc1ccc(F)cc1 (stereo not drawn) |  | 11.5 µM | 13.5 µM | 16.6 µM | 21.4 µM | 26.9 µM | 0.22 | 
4 | CN(CCC=C(c1ccccc1)c1ccccc1)C(CCN)C(=O)NCc1ccccc1Cl (stereo not drawn) | 0.76 | 6.46 µM | 9.12 µM | 12.9 µM | 11 µM | 10 µM |  | 
5 | NCCC(C(=O)NCc1ccccc1Cl)N1CCC(C(c2ccccc2)c2ccccc2)CC1 (stereo not drawn) | 0.79 | 5.89 µM | 10.2 µM | 13.8 µM | 25.7 µM | 11 µM |  | 
6 | NCCC(C(=O)NCc1ccccc1)N1CCN(C(c2ccccc2)c2ccccc2)CC1 (stereo not drawn) | 0.15 | 38 µM | 58.9 µM | 44.7 µM |  | 26.9 µM |  | 83%
7 | NCCC(C(=O)NCc1ccc(F)cc1)N1CCN(C(c2ccccc2)c2ccccc2)CC1 (stereo not drawn) | 0.12 | 30.9 µM | 37.2 µM | 23.4 µM | 66.1 µM | 33.9 µM |  | 
8 | NCCC(C(=O)NCc1ccc(F)cc1)N1CCC(C(c2ccccc2)c2ccccc2)CC1 (stereo not drawn) | 0.9 | 9.33 µM | 8.51 µM | 15.8 µM | 33.9 µM | 21.4 µM |  | 
9 | NCCC(C(=O)NCc1ccccc1Cl)N1CCC(=C(c2ccccc2)c2ccccc2)CC1 (stereo not drawn) | 0.78 | 10.2 µM | 11 µM | 13.5 µM | 10.5 µM | 15.5 µM |  | 
10 | Cc1ccc(CNC(=O)C(CCN)N(C)CCCC(c2ccccc2)c2ccccc2)cc1 (stereo not drawn) |  | 14.1 µM | 8.32 µM | 12.3 µM | 15.5 µM | 22.9 µM | 0.17 | 
11 | NCCC(C(=O)NCc1ccccc1)N1CCC(=C(c2ccccc2)c2ccccc2)CC1 (stereo not drawn) | 0.74 | 15.5 µM | 12 µM | 11 µM | 16.6 µM | 13.8 µM |  | 
12 | Cc1ccc(CNC(=O)C(CCN)N2CCC(C(c3ccccc3)c3ccccc3)CC2)cc1 (stereo not drawn) | 0.92 | 7.94 µM | 7.41 µM | 13.2 µM | 16.6 µM | 14.5 µM |  | 
13 | NCCC(C(=O)NCc1ccc(Cl)cc1)N1CCC(C(c2ccccc2)c2ccccc2)CC1 (stereo not drawn) | 0.77 | 9.77 µM | 10.2 µM | 11.2 µM | 30.2 µM | 9.55 µM |  | 
14 | Cc1ccc(CNC(=O)C(CCN)N2CCN(C(c3ccccc3)c3ccccc3)CC2)cc1 (stereo not drawn) | 0.18 | 30.2 µM | 23.4 µM | 28.2 µM | 63.1 µM | 18.2 µM |  | 
15 | NCCC(C(=O)NCc1ccc(Cl)cc1)N1CCC(=C(c2ccccc2)c2ccccc2)CC1 (stereo not drawn) | 0.8 | 10.5 µM | 12 µM | 11 µM | 24 µM | 12.9 µM |  | 
16 | Cc1ccc(CNC(=O)C(CCN)N2CCC(=C(c3ccccc3)c3ccccc3)CC2)cc1 (stereo not drawn) | 0.73 | 5.89 µM | 11.5 µM | 11.2 µM | 29.5 µM | 16.2 µM |  | 
17 | CN(CCCC(c1ccccc1)c1ccccc1)C(CCN)C(=O)NCc1ccccc1Cl (stereo not drawn) |  | 7.76 µM | 11.5 µM | 12.6 µM | 21.4 µM | 19.1 µM | 0.15 | 
18 | NCCC(NCCC=C(c1ccccc1)c1ccccc1)C(=O)NCc1ccccc1 (stereo not drawn) |  | 7.94 µM | 25.7 µM | 30.9 µM | 17.4 µM | 33.1 µM | 0.16 | 
19 | CN(CCC=C(c1ccccc1)c1ccccc1)C(CCN)C(=O)NCc1ccccc1 (stereo not drawn) | 0.74 | 12 µM | 15.8 µM | 18.6 µM | 12.6 µM | 24 µM |  | 
20 | NCCC(NCCC=C(c1ccccc1)c1ccccc1)C(=O)NCc1ccccc1Cl (stereo not drawn) |  | 6.92 µM | 10.2 µM | 15.8 µM |  | 24 µM | 0.15 | 53%
21 | CN(CCCC(c1ccccc1)c1ccccc1)C(CCN)C(=O)NCc1ccccc1 (stereo not drawn) |  | 9.55 µM | 25.7 µM | 22.4 µM | 30.9 µM | 29.5 µM | 0.12 | 
22 | NCCC(NCCC=C(c1ccccc1)c1ccccc1)C(=O)NCc1ccc(F)cc1 (stereo not drawn) |  | 12 µM | 31.6 µM | 27.5 µM | 22.9 µM | 24.5 µM | 0.15 | 
23 | CN(CCCC(c1ccccc1)c1ccccc1)C(CCN)C(=O)NCc1ccc(Cl)cc1 (stereo not drawn) |  | 17.4 µM | 14.5 µM | 17.4 µM | 17.8 µM | 21.4 µM | 0.1 | 
24 | NCCC(C(=O)NCc1ccc(F)cc1)N1CCC(=C(c2ccccc2)c2ccccc2)CC1 (stereo not drawn) | 0.77 | 10.2 µM | 13.5 µM | 11 µM | 25.1 µM | 12.3 µM |  | 
25 | NCCC(C(=O)NCc1ccccc1)N1CCC(C(c2ccccc2)c2ccccc2)CC1 (stereo not drawn) | 0.92 | 12 µM | 20 µM | 19.5 µM | 32.4 µM | 20.4 µM |  | 
26 | NCCC(NCCC=C(c1ccccc1)c1ccccc1)C(=O)NCc1ccc(Cl)cc1 (stereo not drawn) |  | 9.55 µM | 11.7 µM | 16.6 µM | 16.2 µM | 17.8 µM | 0.14 | 
27 | CN(CCC=C(c1ccccc1)c1ccccc1)C(CCN)C(=O)NCc1ccc(Cl)cc1 (stereo not drawn) | 0.73 | 9.77 µM | 12.6 µM | 12.9 µM | 11.2 µM | 11.2 µM |  | 
28 | Cc1ccc(CNC(=O)C(CCN)NCCC=C(c2ccccc2)c2ccccc2)cc1 (stereo not drawn) |  | 8.91 µM | 15.1 µM | 19.5 µM | 11 µM | 29.5 µM | 0.16 | 
